Drawing on patent US20220281831A1, “FUSED-GLUTARIMIDE CRBN LIGANDS AND USES THEREOF” (Kymera Therapeutics, Inc., priority 2019, published 2022), this text covers IC50 for 67 molecules.

pIC50: −log10 of the molar value.

Sequence of CRBN-DDB1 (Q96SW2 whole entry): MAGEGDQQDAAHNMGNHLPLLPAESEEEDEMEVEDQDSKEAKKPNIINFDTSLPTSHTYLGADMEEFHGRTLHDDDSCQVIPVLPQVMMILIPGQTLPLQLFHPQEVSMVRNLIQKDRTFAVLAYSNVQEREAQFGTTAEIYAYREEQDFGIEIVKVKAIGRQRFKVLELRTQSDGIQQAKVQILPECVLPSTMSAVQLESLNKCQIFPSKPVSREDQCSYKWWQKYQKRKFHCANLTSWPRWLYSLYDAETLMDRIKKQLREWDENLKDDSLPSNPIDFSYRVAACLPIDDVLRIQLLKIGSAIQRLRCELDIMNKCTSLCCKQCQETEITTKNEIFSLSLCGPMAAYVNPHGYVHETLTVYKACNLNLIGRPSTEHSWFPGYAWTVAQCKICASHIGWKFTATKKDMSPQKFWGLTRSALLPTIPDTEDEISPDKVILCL
Sequence of CRBN-DDB1 (Q16531 whole entry partner): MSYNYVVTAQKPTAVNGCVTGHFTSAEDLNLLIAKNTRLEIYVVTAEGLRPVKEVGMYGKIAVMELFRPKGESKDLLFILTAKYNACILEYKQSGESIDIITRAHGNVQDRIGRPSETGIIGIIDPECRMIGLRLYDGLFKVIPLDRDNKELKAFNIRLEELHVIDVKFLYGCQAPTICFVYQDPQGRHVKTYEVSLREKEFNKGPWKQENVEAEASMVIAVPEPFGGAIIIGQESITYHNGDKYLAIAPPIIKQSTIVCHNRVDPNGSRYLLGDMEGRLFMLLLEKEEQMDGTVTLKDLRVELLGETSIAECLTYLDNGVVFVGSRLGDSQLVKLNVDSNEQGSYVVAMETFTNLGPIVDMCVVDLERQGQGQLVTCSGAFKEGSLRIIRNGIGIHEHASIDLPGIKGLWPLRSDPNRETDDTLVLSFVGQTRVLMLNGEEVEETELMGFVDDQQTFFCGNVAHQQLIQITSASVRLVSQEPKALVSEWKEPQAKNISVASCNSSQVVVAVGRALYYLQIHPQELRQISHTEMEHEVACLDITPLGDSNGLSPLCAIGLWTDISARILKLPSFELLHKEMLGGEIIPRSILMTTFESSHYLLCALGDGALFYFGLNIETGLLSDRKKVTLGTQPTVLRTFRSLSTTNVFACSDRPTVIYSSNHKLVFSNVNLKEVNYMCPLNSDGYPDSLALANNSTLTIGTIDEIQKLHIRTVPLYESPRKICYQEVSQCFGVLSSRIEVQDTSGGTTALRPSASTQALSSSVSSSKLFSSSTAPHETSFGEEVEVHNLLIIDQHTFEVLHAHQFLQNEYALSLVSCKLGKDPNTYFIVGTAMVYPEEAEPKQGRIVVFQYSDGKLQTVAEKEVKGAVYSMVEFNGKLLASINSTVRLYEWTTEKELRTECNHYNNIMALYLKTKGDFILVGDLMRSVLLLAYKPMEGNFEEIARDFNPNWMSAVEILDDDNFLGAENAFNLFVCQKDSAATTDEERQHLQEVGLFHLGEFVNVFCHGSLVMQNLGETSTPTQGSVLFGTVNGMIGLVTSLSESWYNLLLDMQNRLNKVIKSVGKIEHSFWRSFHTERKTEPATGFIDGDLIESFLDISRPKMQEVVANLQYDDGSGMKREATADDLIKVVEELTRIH

For one assay, the target named is CRBN-DDB1 (Homo sapiens, UniProt Q96SW2). Put plainly: Fluorescence Polarization (FP) CRBN binding assay, probe TM-493 (FAM-BB-100). The settings on record: CRBN-DDB1, TM-493 probe, 60 min room temperature. As for the experimental part:
Fluorescence Polarization (FP) Assay
Materials: PerkinElmer EnVision 2104 Multilabel Reader, PerkinElmer FITC FP dual emission Label 2100-8060, Corning 384-well microplate #4514, V-CMR-TM-493 (FAM-BB-100), and CRBN-DDB1-180605.
Methods: Dilution buffer (50 mM HEPES-Na pH 7.5, 100 mM NaCl, 2 mM DTT, and 0.005% Tween-20) and compound DMSO dilutions were prepared. 4× compound working solutions were made with 8% DMSO (4×) and 13.8 μL/well of dilution buffer was placed in a new 96-well plate and 1.2 μL/well of above compound DMSO dilutions were added to the wells. 40 nM (4×) TM-493 in dilution buffer was prepared from a 10 μM DMSO stock and 15 μL per well of the TM-493 working solution was transferred into the compound working solution. 160 nM (2×) CRBN-DDB1 working solution was prepared with Dilution Buffer and 10 μL/well were added into a 384-well plate. 10 μL per well of the TM-493/compound mixture were transferred into the 384-well plate. The “positive control” was sample without protein and compound in 2% DMSO. After incubation at room temperature for 60 min, data was collected and read on data on an EnVision with the following setting: Excitation Light (%): 100; Measurement Height: 9.4; G-Factor: 1; Detector Gain 1: 200; Detector Gain 2: 200; Flash Number: 100. Data was processed using GraphPad Prism 7.0
(§1) The compound numbers correspond to the compound numbers in Table 1.
For orientation: Polarisation of emitted light reports the rotation of a fluorescent probe.
In the case of `Cc1ccccc1-c1cccc2c1C(=O)NC(=O)C2` [Compound I-24], the pIC50 was 4.52 to 5.00.

As to `Cc1ncoc1-c1cccc2c1C(=O)NC(=O)C2` [Compound I-25], the pIC50 was less than 4.00.

`O=C1CC2(C(=O)N1)C(=O)Nc1ccccc12` (stereo not shown) [Compound I-176] showed a pIC50 of less than 4.00.

In the next assay the target is His-tagged CRBN-DDB1 complex (Homo sapiens, UniProt Q96SW2). Nature of the assay: Time-Resolved Fluorescence Resonance Energy Transfer (TR-FRET / HTRF) CRBN binding assay, displacement of Cy5-labeled thalidomide. The settings on record: His-CRBN-DDB1, Cy5-thalidomide 8 nM, 1 hour room temperature. Here is the method: Time-Resolved Fluorescence Resonance Energy Transfer (TR-FRET) Assay.
Sequence of His-tagged CRBN-DDB1 complex (Q96SW2 whole entry): as the sequence (Q96SW2 whole entry) above
Sequence of His-tagged CRBN-DDB1 complex (Q16531 whole entry partner): as the sequence (Q16531 whole entry partner) above
Equal volumes of His-tagged CRBN-DDB1 complex (56 nM) was mixed with Eu-cryptate labeled Anti-6HIS-monoclonal antibody (50× dilution from the commercial stock solution, Vender: Cisbio, Cat. #61HI2KLA) in a final buffer containing 20 mM HEPES pH 7.0, 150 mM NaCl, 0.005% Tween-20. […] The mixture were incubated at room temperature for 1 hour. FRET signals were measured on an EnVision plate reader (Perkin Elmer) by exciting at 340 nm and recording emission at both 615 nm as no FRET control and 665 nm as the FRET signals with a 60 microsecond delay. FRET efficiency was calculated as the ratio of fluorescent signals at […]. Quantitative loss of FRET efficiency as a function of compound concentrations was fitted by a four-parameter Logistic Function using GraphPad Prism 7.0 and the IC50 values were reported for each compound.
as §1
On the technique in general: Time-resolved FRET reads energy transfer from a long-lived donor to a nearby acceptor.
On to `O=C1NC(=O)[C@@H]2CN(Cc3ccc(F)c4ccccc34)C[C@H]12` [Compound I-313], for which the pIC50 is less than 4.00.

The molecule `Cc1ccc(CN2C[C@@H]3C(=O)NC(=O)[C@@H]3C2)o1` [Compound I-314] had a pIC50 of less than 4.00.

Molecule `O=C1NC(=O)[C@@H]2CN(Cc3cccc4cccnc34)C[C@H]12` [Compound I-315] gave a pIC50 of less than 4.00.

`O=C1NC(=O)[C@@H]2CN(Cc3cc4ccccc4o3)C[C@H]12` [Compound I-316] gave a pIC50 of 4.00 to 4.52.

The molecule `O=C1NC(=O)[C@@H]2CN(C(=O)c3ccc4ccccc4c3)C[C@H]12` [Compound I-317] showed a pIC50 of 4.00 to 4.52.

As to `O=C1NC(=O)[C@@H]2CN(C(=O)c3cncs3)C[C@H]12` [Compound I-318], the pIC50 was less than 4.00.

On to `O=C1NC(=O)[C@@H]2CN(C(=O)c3ccc4ccoc4c3)C[C@H]12` [Compound I-320], for which the pIC50 was less than 4.00.

`O=C1NC(=O)[C@@H]2CN(C(=O)c3cccs3)C[C@H]12` [Compound I-321] showed a pIC50 of less than 4.00.

Consider `O=C1NC(=O)[C@@H]2CN(C(=O)c3ccc(F)cc3)C[C@H]12` [Compound I-322], for which the pIC50 was less than 4.00.

As to `Cc1cccc(C(=O)N2C[C@@H]3C(=O)NC(=O)[C@@H]3C2)c1` [Compound I-323], the pIC50 was less than 4.00.

Molecule `COc1ccc(C(=O)N2C[C@@H]3C(=O)NC(=O)[C@@H]3C2)cn1` [Compound I-324] gave a pIC50 of less than 4.00.

In the case of `O=C1NC(=O)[C@@H]2CN(Cc3cccc4ccccc34)C[C@H]12` [Compound I-325], the pIC50 was less than 4.00.

`CC(=O)Nc1ccc2c(c1)C(=O)NC2=O` [Compound I-326] showed a pIC50 of less than 4.00.

In turn, `O=C1NC(=O)[C@@H]2CNC[C@H]12` [Compound I-327] showed a pIC50 of less than 4.00.

In turn, `O=C1NC(=O)[C@@H]2CN(Cc3ccccc3)C[C@H]12` [Compound I-328] gave a pIC50 of less than 4.00.

`O=C1CC2(CCN(Cc3cccc4cccnc34)CC2)CC(=O)N1` [Compound I-329]: the pIC50 is less than 4.00.

Turning to `O=C1CC2(CCN(Cc3ccc([N+](=O)[O-])s3)CC2)CC(=O)N1` [Compound I-330], the negative-log IC50 (pIC50) was 4.00 to 4.52.

Take `O=C1CC2(CCN(Cc3cccc4ccccc34)CC2)CC(=O)N1` [Compound I-331]: the pIC50 is less than 4.00.

As for `CN(C)c1ccc(CN2CCC3(CC2)CC(=O)NC(=O)C3)cc1` [Compound I-332], the pIC50 was less than 4.00.

Take `O=C1CC2(CCN(Cc3cc4ccccc4o3)CC2)CC(=O)N1` [Compound I-333]: the pIC50 was less than 4.00.

`O=C1CC2(CCN(C(=O)COCc3ccccc3)CC2)CC(=O)N1` [Compound I-334] had a pIC50 of less than 4.00.

With `CCCCOc1ccc(CN2CCC3(CC2)CC(=O)NC(=O)C3)cc1` [Compound I-335], the pIC50 is less than 4.00.

`O=C1CC2(CCN(Cc3ccc(F)c4ccccc34)CC2)CC(=O)N1` [Compound I-336] showed a pIC50 of less than 4.00.

For `O=C1CC2(CCN(Cc3ccc[nH]3)CC2)CC(=O)N1` [Compound I-337], the pIC50 is less than 4.00.

Consider `Cc1ccc(CN2CCC3(CC2)CC(=O)NC(=O)C3)cc1` [Compound I-338], for which the pIC50 is less than 4.00.

Molecule `O=C1CC2(CCN(Cc3c[nH]cn3)CC2)CC(=O)N1` [Compound I-339] had a negative logarithm of the IC50 (pIC50) of less than 4.00.

In turn, `Cc1cc(C(=O)N2CCC3(CC2)CC(=O)NC(=O)C3)ccn1` [Compound I-340] had a pIC50 of less than 4.00.

`O=C1CC2(CCN(C(=O)c3ccn[nH]3)CC2)CC(=O)N1` [Compound I-341] gave a pIC50 of less than 4.00.

As to `O=C1CC2(CCN(Cc3c[nH]c4ccccc34)CC2)CC(=O)N1` [Compound I-342], the pIC50 is less than 4.00.

`O=C1CC2(CCN(Cc3ccc(Cl)cc3)CC2)CC(=O)N1` [Compound I-343]: the pIC50 was less than 4.00.

In turn, `O=C1CC2(CCN(Cc3ccc(Oc4ccccc4)cc3)CC2)CC(=O)N1` [Compound I-344] showed a pIC50 of less than 4.00.

As to `COc1ccc(CN2CCC3(CC2)CC(=O)NC(=O)C3)cn1` [Compound I-345], the pIC50 was less than 4.00.

Molecule `O=C1CC2(CCN(Cc3ccc(-c4ccccc4)cc3)CC2)CC(=O)N1` [Compound I-346] showed a pIC50 of less than 4.00.

In the case of `O=C1CC2(CCN(Cc3cccc(O)c3)CC2)CC(=O)N1` [Compound I-347], the pIC50 was less than 4.00.

Consider `O=C1CC2(CCN(C(=O)c3cccs3)CC2)CC(=O)N1` [Compound I-348], for which the pIC50 is less than 4.00.

`Cc1cccc(CN2CCC3(CC2)CC(=O)NC(=O)C3)n1` [Compound I-349] had a pIC50 of less than 4.00.

Consider `O=C1CC2(CCN(C(=O)c3cccnn3)CC2)CC(=O)N1` [Compound I-350], for which the pIC50 was less than 4.00.

In turn, `O=C1CC2(CCN(C3CCCC3)CC2)CC(=O)N1` [Compound I-351] gave a pIC50 of less than 4.00.

Regarding `O=C1CC2(CCN(C(=O)Cc3ccccn3)CC2)CC(=O)N1` [Compound I-352], the pIC50 was less than 4.00.

`O=C1CC2(CCN(C(=O)c3cnco3)CC2)CC(=O)N1` [Compound I-353] had a pIC50 of less than 4.00.

The molecule `O=C1CC2(CCN(C(=O)c3c[nH]cn3)CC2)CC(=O)N1` [Compound I-354] showed a pIC50 of less than 4.00.

`COc1ccc(C(=O)N2CCC3(CC2)CC(=O)NC(=O)C3)cn1` [Compound I-355]: the pIC50 was less than 4.00.

`Cc1ccc(CN2CCC3(CC2)CC(=O)NC(=O)C3)o1` [Compound I-356] had a pIC50 of less than 4.00.

In turn, `O=C1CC2(CCN(CCc3ccccc3)CC2)CC(=O)N1` [Compound I-357] showed a pIC50 of less than 4.00.

In the case of `Cc1ncoc1C(=O)N1CCC2(CC1)CC(=O)NC(=O)C2` [Compound I-358], the pIC50 was less than 4.00.

`O=C1CC2(CCN(C(=O)c3cnccn3)CC2)CC(=O)N1` [Compound I-359] showed a negative logarithm of the IC50 (pIC50) of less than 4.00.

For the molecule `O=C1CC2(CCN(C(=O)c3ccco3)CC2)CC(=O)N1` [Compound I-360], the pIC50 is less than 4.00.

Regarding `O=C1CC2(CCN(C(=O)c3ccc4ccoc4c3)CC2)CC(=O)N1` [Compound I-361], the pIC50 is less than 4.00.

In the case of `O=C1CC2(CCN(C(=O)C3CC3)CC2)CC(=O)N1` [Compound I-362], the pIC50 was less than 4.00.

In the case of `O=C1CC2(CCN(Cc3ccncc3)CC2)CC(=O)N1` [Compound I-363], the pIC50 is less than 4.00.

As for `O=C1CC2(CCN(C(=O)c3cnon3)CC2)CC(=O)N1` [Compound I-364], the pIC50 was less than 4.00.

Consider `Cc1cccc(C(=O)N2CCC3(CC2)CC(=O)NC(=O)C3)c1` [Compound I-365], for which the pIC50 was less than 4.00.

In turn, `O=C1CC2(CCN(C(=O)c3cncnc3)CC2)CC(=O)N1` [Compound I-366] had a negative logarithm of the IC50 (pIC50) of less than 4.00.

The molecule `O=C1CC2(CCN(C(=O)c3cccc(C(F)(F)F)n3)CC2)CC(=O)N1` [Compound I-367] had a pIC50 of less than 4.00.

Turning to `O=C1CC2(CCN(C(=O)c3ccc4ccccc4c3)CC2)CC(=O)N1` [Compound I-368], the pIC50 is less than 4.00.

For the molecule `O=C1CC2(CCN(C(=O)c3ccc(O)cc3)CC2)CC(=O)N1` [Compound I-369], the pIC50 is less than 4.00.

Regarding `O=C1CC2(CCN(C(=O)c3n[nH]c4ccccc34)CC2)CC(=O)N1` [Compound I-371], the pIC50 is less than 4.00.

On to `O=C1CC2(CCNCC2)CC(=O)N1` [Compound I-372], for which the pIC50 is less than 4.00.

`O=C1CC2(CCN(C(=O)c3ccnc(Cl)c3)CC2)CC(=O)N1` [Compound I-373] showed a pIC50 of less than 4.00.

`O=C1CC2(CCN(Cc3ccccc3)CC2)CC(=O)N1` [Compound I-374] gave a pIC50 of less than 4.00.

Consider `O=C1NC(=O)[C@@H]2CN(C(=O)c3coc(COc4ccc5c(c4)OCO5)n3)C[C@H]12` [Compound I-375], for which the pIC50 was 4.00 to 4.52.

Regarding `Cc1nn(C)c2nc(N3CCC4(CC3)CC(=O)NC(=O)C4)sc12` [Compound I-376], the pIC50 was 4.00 to 4.52.

In turn, `O=C1CC2(CCc3cc(Br)ccc32)C(=O)N1` (stereo not shown) [Compound I-377] gave a pIC50 of 4.00 to 4.52.

The molecule `O=C1NC(=O)c2cc(NC(=O)N3CC=C(c4ccc(O)cc4)CC3)ccc21` [Compound I-378] had a pIC50 of 4.00 to 4.52.

The term pIC50 denotes the negative decadic logarithm of the IC50, by convention in mol/L. Read a high pIC50 as a small IC50.
